Source: PMC3651166, “Differential Cytotoxic Activity of a Novel Palladium-Based Compound on Prostate Cell Lines, Primary Prostate Epithelial Cells and Prostate Stem Cells” (PLoS ONE, 2013)
“And” between values parts separate entries of the source, which are not always exact repeats. Equal entries are not always repeated. “Also recorded” adds a separate entry of the source.

Tests used:
[1] = system: PNT1A, PNT2-C2, BPH-1; assay: MTS assay, average over normal/benign cell lines; assay type: cell-based, human; conditions: average of PNT1A
Protocol: (§1) In this study, six different prostate cell lines (PNT1A, PNT2-C2, BPH-1, PC-3, LNCaP, P4E6) were used (Table 1). These cell lines encompass the spectrum of cellular differentiation status (basal, intermediate and luminal phenotypes), as well as the spectrum of normal, early cancer and late cancer. BPH-1 is derived from benign prostate hyperplasia (BPH), while PNT2-C2 and PNT1A are derived from normal prostate. PC-3, LNCaP and P4E6 are cancer cell lines. LNCaP, PNT2-C2, PNT1A were grown in RPMI medium with 10% FCS (foetal calf serum); PC-3 was grown in Ham’s F-12 medium with 7% FCS; BPH-1 was grown in RPMI medium with 5% FCS; P4E6 was grown in KSFM (Keratinocyte serum free medium) with 2% FCS. No antibiotics were used in any media. The cells were incubated at 37°C in a humidified atmosphere containing 5% CO2.
(§2) This assay was performed for the initial screening of the effect of the Pd complex on the cell lines and the whole cell population of primary cultures. The CellTiter 96® Aqueous One Solution Cell Proliferation Assay kit (G3580, Promega, Madison, WI, USA) was used and the manufacturer’s instructions were followed. Briefly, after treating cells that were seeded at a density of 5,000 cells per well in a 96-well plate in triplicate for a desired period (24 h, 48 h, 72 h), 20 µL of reagent was added to each well. Following 2.5 h incubation at 37°C, the absorbance was read at 485 nm using a plate reader (PolarStar Optima, BMG Labtech, UK). Percent viability was calculated using the formula (% Viability = [(Sample Absorbance/Control Absorbance)]×100.
(§3) MTS and ATP assays were performed in triplicate and data presented as the mean +/− standard deviation. IC50 values (Table 3 and Table 4) were calculated from graphs of transformed data following application of the nonlinear regression (curve fit) that represents the log(inhibitor) ‘v’ normalized response (GraphPad Prism software) (Supplementary Figures S1 and S2). For significance calculations, the Wilcoxon rank sum test was used (Sigmaplot). […]

[2] = system: primary prostate epithelial cells; assay: Flow cytometry cell cycle analysis, primary cells; assay type: cell-based, human; conditions: primary cells
Protocol: Following drug treatment, floating cells in the media were pooled with adherent cells, which were collected by trypsinisation. Following centrifugation cells were resuspended in 0.5 ml PBS. Cells were fixed in 2 ml ice cold 70% ethanol, which was added in a dropwise fashion while vortexing. Cells were incubated on ice for 30 min then washed in 5 ml PBS and resuspended in 0.4 ml PBS. Following storage at 4°C overnight, 50 µl of RNAse (1 mg/ml) and 50 µl of propidium iodide (1 mg/ml) were added to the cells. Following incubation at 37°C for 30 min the cells were analysed for 2N and 4N DNA content on a flow cytometer (Cyan ADP Analyser, Beckman Coulter).

[3] = system: PNT1A, PNT2-C2, BPH-1, PC-3, LNCaP, P4E6; assay: MTS assay, panel of six prostate cell lines; assay type: cell-based, human; conditions: 100 µM, 72 h
Protocol: as §1
as §2, with “Briefly, after treating cells that were seeded at a density of 5,000 cells per well in a 96-well plate in triplicate for a desired period (24 h, 48 h, 72 h), 20 µL of reagent was added to each well.” left out, “Absorbance)]×100. […]” for “Absorbance)]×100.”

[4] = system: stem cells (SCs), transit-amplifying cells (TAs) and committed basal cells (CBs); assay: ATP viability assay on fractionated primary cells; assay type: cell-based
Protocol: Epithelial cells from human tumour or BPH materials were cultured for several weeks and the cells treated at very low passages. The cultured basal cell population were trypsinized, resuspended in SCM and then plated on BSA-blocked collagen I-coated plates. […] The cells that attached to substratum were trypsinised, resuspended in MACs buffer and incubated with CD133-microbeads (Cat no. 130-050-801, Miltenyi Biotec Inc., Auburn, CA, USA). MACs MS columns (Cat no. 130-042-201, Miltenyi Biotec Inc., Auburn, CA, USA) were used to select the CD133^+ and CD133^− cells. Finally, the three cell populations were obtained: stem cells (SCs) - α2β1integrin^hi/CD133^+, transit-amplifying cells (TAs) - α2β1integrin^hi/CD133^− and committed basal cells (CBs) - α2β1integrin^lo.
This assay was employed for the bioluminescent determination of the adenosine 5′-triphosphate (ATP) released from fractionated living cells (cancer stem cells, transit amplifying cells and committed basal cells). As ATP is rapidly degraded in dead cells, high intracellular levels provide a selective assay for living cells. The ATP-bioluminescent somatic cell assay kit (FLASC, Sigma-Aldrich, Saint Louis, MO, USA) was used with protocol modifications. Briefly, 50–500 cells per well were seeded in a collagen-coated 96 well plate in triplicate. After treating cells for 72 h, 150 µL of medium was removed from each well. 50 µL of cell extraction reagent was added into each original well. Following 20 min incubation at RT, 50 µL of cell extract was transferred to a white 96-well plate. Finally, 50 µL of ATP assay mix solution was added into the wells and luminescence was read using a plate reader (PolarStar Optima, BMG Labtech, UK). Percent viability was calculated using the formula (% Viability = [(Sample RLU/Control RLU)]x100 where RLU refers to relative light units.

[5] = system: P4E6, PC-3, LNCaP; assay: MTS assay, average over cancer cell lines; assay type: cell-based, human; conditions: average of P4E6, PC-3, LNCaP
Protocol: as §1, §2, §3

For [PdCl(terpy)](sac)⋅2 H2O [Pd complex], the IC50 ([1]; PNT2-C2, BPH-1, 24 h) was 15.8 µM, the IC50 ([1]; PNT2-C2, BPH-1, 48 h) was 6.77 µM and the IC50 ([1]; PNT2-C2, BPH-1, 72 h) was 0.38 µM and 0.383 µM. The “cells with more than 4N DNA content” value [2] was “increase in cells with more than 4N DNA content”, the sub-G1 content [2] was “clear dose response showing increase in sub-G1 content” and the “growth inhibition of all cell lines” value [3] was “almost completely”. The “toxicity compared to cisplatin” value ([4]; 6 µM range, ATP assay) was “comparable toxicity to cisplatin”, the “anti-growth effect compared to 25 µM Pd complex and 25 µM etoposide” value ([4]; 6.25 µM, 72 h, ATP assay, SC, TA, CB) was “less than 25 µM Pd complex but still more cytotoxic than 25 µM etoposide” and the “cytotoxicity compared to 25 µM etoposide” value ([4]; 25 µM, 72 h, ATP assay, stem cells (also TA, CB)) was “significantly more cytotoxic; also recorded: much more potent cytotoxic activity than etoposide”. The cell killing ([4]; 50 µM, data not shown) was “killed all cells”, the IC50 ([5]; 24 h) was 75.4 µM and the IC50 ([5]; 48 h) was 23.6 µM. For the same substance, the IC50 ([5]; 72 h) was 11.5 µM.
